Assay results as given in patent US20050031715A1, “Natural preservative comprising heated garlic extract and method for preparing thereof” (SEJONG UNIVERSITY, priority 2003, published 2005).

Columns and labels:
Type in all cases: cell-based
[1] = test system: Candida albicans (Clinical); experiment: MIC, viable count method; settings: 48 hrs, heated garlic: 121° C. for 45 min
Procedure: (§1) In order to compare the antibacterial activity and the antifungal activity of the garlic extract of Example 1 prepared by heating at 121° C., according to the heating time, MIC (minimum inhibitory concentration) was measured for the samples of the heated garlic extract. The MIC represents minimum concentration of material to inhibit the growth of certain type of microorganism. It is understood that the lower the MIC of a material, the higher the antimicrobial activity of the material. The inhibition of microbial growth was measured by viable count method based on Spiral Autoplate System of Spiral Biotech Inc. Three separate experiments were carried out for each sample and the highest value was taken as the MIC of the sample.
(§2) Antimicrobial activity was measured for the garlic extract heated at 121° C. for 45 min of Example 1, the fresh garlic extract and the AITC solution which had been prepared in Comparative Examples. Conditions for the viable count method, the medium and initial number of microorganisms inoculated were the same as those described in the above Test Examples. The MIC was measured at 24 hrs or 48 hrs after incubating the bacteria or the yeasts, respectively.
(§3) Staphylococcus aureus B33, Escherichia coli B34, Enterobacter aerogenes B146, Leuconostoc mesenteroides LA10, Pediococcus pentosaceus LA3, Lactobacillus plantarum LA97, Pichia membranifaciens Y20, Saccharomyces cerevisiae ATCC 4126 and Candida utilis ATCC 42416 used in this Test Example were kindly provided from Dr. Henry P. Fleming at the Food Fermentation Laboratory of the North Carolina State University in USA. Candida albicans HY1 was separated from an infant with oral candidiasis. In addition, Candida albicans KCTC 7121 and 7965 were purchased from Korean Collection for Type Cultures (KCTC) and Zygosaccharomyces bisporus KCCM 50168, Zygosaccharomyces rouxii (soya) KCCM 11300, Zygosaccharomyces rouxii KCCM 11303, Zygosaccharomyces rouxii (sake) KCCM 50523 and Zygosaccharomyces rouxii (gracilis) KCCM 50546 were obtained from KCCM (Korean Culture Center of Microorganisms).

[2] = test system: Candida albicans KCTC 7121; experiment: MIC, viable count method; settings: 48 hrs, heated garlic: 121° C. for 45 min
Procedure: as §1, §2, §3

[3] = test system: Candida albicans KCTC 7965; experiment: MIC, viable count method; settings: 48 hrs, heated garlic: 121° C. for 45 min
Procedure: as §1, §2, §3

[4] = test system: Candida utilis ATCC 42416; experiment: MIC, viable count method; settings: 48 hrs, heated garlic: 121° C. for 45 min
Procedure: as §1, §2, §3

[5] = test system: Enterobacter aerogenes B146; experiment: MIC, viable count method; settings: 24 hrs, heated garlic: 121° C. for 45 min
Procedure: as §1, §2, §3

Escherichia coli B34 = experiment: MIC, viable count method; settings: 24 hrs, heated garlic: 121° C. for 45 min
Procedure: as §1, §2, §3

[6] = test system: Lactobacillus plantarum LA97; experiment: MIC, viable count method; settings: 24 hrs, heated garlic: 121° C. for 45 min
Procedure: as §1, §2, §3

[7] = test system: Leuconostoc mesenteroides LA10; experiment: MIC, viable count method; settings: 24 hrs, heated garlic: 121° C. for 45 min
Procedure: as §1, §2, §3

[8] = test system: Pediococcus pentosaceus LA3; experiment: MIC, viable count method; settings: 24 hrs, heated garlic: 121° C. for 45 min
Procedure: as §1, §2, §3

[9] = test system: Pichia membranefaciens Y20; experiment: MIC, viable count method; settings: 48 hrs, heated garlic: 121° C. for 45 min
Procedure: as §1, §2, §3

[10] = test system: Saccharomyces cerevisiae ATCC 4126; experiment: MIC, viable count method; settings: 48 hrs, heated garlic: 121° C. for 45 min
Procedure: as §1, §2, §3

[11] = test system: Staphylococcus aureus B33; experiment: MIC, viable count method; settings: 24 hrs, heated garlic: 121° C. for 45 min
Procedure: as §1, §2, §3

[12] = test system: Zygosaccharomyces bisporus KCCM 50168; experiment: MIC, viable count method; settings: 48 hrs, heated garlic: 121° C. for 45 min
Procedure: as §1, §2, §3

[13] = test system: Zygosaccharomyces rouxii KCCM 11300; experiment: MIC, viable count method; settings: 48 hrs, heated garlic: 121° C. for 45 min
Procedure: as §1, §2, §3

[14] = test system: Zygosaccharomyces rouxii KCCM 11303; experiment: MIC, viable count method; settings: 48 hrs, heated garlic: 121° C. for 45 min
Procedure: as §1, §2, §3

[15] = test system: Zygosaccharomyces rouxii KCCM 50523; experiment: MIC, viable count method; settings: 48 hrs, heated garlic: 121° C. for 45 min
Procedure: as §1, §2, §3

[16] = test system: Zygosaccharomyces rouxii KCCM 50546; experiment: MIC, viable count method; settings: 48 hrs, heated garlic: 121° C. for 45 min
Procedure: as §1, §2, §3

[17] = test system: Candida utilis ATCC 42416; experiment: Antimicrobial activity (MIC) over storage time at 37° C.; settings: stored at 37° C., 30 days, heated extract: 121° C. for 120 min
Procedure: as §1
Antimicrobial activity of the garlic extract prepared by heating at 121° C. for 120 min in Example 1, the fresh garlic extract and the AITC solution was measured for Candida utilis ATCC 42416, over storage time. Candida utilis ATCC 42416 used in this Test Example was kindly provided from Dr. Henry P. Fleming at the Food Fermentation Laboratory of the North Carolina State University in USA. […] From the first day to the 30th day of the storage, the MIC was measured everyday or every two days using the viable count method described in Test Example 1.

[18] = test system: Candida utilis ATCC 42416; experiment: Antimicrobial activity (log CFU/Ml) over pH condition; settings: 30° C., 24 hrs
Procedure: Antimicrobial activity of the garlic extract heated at 121° C. for 120 min in Example 1 was measured for Candida utilis ATCC 42416, under various pH conditions. […] For a control, YMPGB medium without comprising any preservative was used. Candida utilis ATCC 42416 used in this Test Example was kindly provided from Dr. Henry P. Fleming at the Food Fermentation Laboratory of the North Carolina State University in USA. […] Then, Candida utilis ATCC 42416 was inoculated with an initial number of 2.1-2.3×10^5 CFU/mL and subsequently incubated at 30° C. for 24 hrs. After completing the incubation, the value of log CFU/Ml was measured by using the viable count method described above.

C=CCN=C=S [AITC solution, allyl isothiocyanate]
MIC [1]: 0.0003 ± 0 volume %
MIC [2]: 0.0003 ± 0.0001 volume %
MIC [3]: 0.0004 ± 0.0001 volume %
MIC [4]: 0.0004 ± 0.0001 volume %
MIC [5]: 0.02 ± 0.002 volume %
MIC (Escherichia coli B34): 0.01 ± 0.0006 volume %
MIC [6]: 0.02 ± 0 volume %
MIC [7]: 0.04 ± 0.0023 volume %
MIC [8]: 0.02 ± 0.0012 volume %
MIC [9]: 0.0001 ± 0 volume %
MIC [10]: 0.0002 ± 0.0001 volume %
MIC [11]: 0.015 ± 0.0006 volume %
MIC [12]: 0.0002 ± 0 volume %
MIC [13]: 0.0002 ± 0 volume %
MIC [14]: 0.0004 ± 0.0001 volume %
MIC [15]: 0.0005 ± 0.0001 volume %
MIC [16]: 0.0004 ± 0.0001 volume %
stability of antifungal activity over storage time [17]: very unstable

C/C=C/C=C/C(=O)[O-].[K+] [potassium sorbate]
antimicrobial activity, dependence on pH ([18]; pH 4 to 9, heated garlic extract (121° C., 120 min) 0.5 volume %, potassium sorbate 0.1 weight %): significantly affected by pH
antimicrobial activity at pH 5 ([18]; pH 5, 0.1 weight %): high
antimicrobial activity at pH 6 ([18]; pH 6, 0.1 weight %): dropped to almost zero
